The source made the active and inactive calls. The calls are words filed in the database; no cut-off is given here.
Tests used:
MCF7 [1] = experiment: Antiproliferative activity against human MCF7 cells assessed as reduction in cell viability; type: functional, cell-based
Ishikawa = experiment: Antiproliferative activity against human Ishikawa cells assessed as cell growth inhibition at 20 uM incubated for 3 days by MTT assay; type: functional; conditions: for inhibition at 20 µM: 72 h, time 3 day; for inhibition: time 3.0 day
MCF7 [2] = experiment: Antiproliferative activity against human MCF7 cells assessed as cell growth inhibition incubated for 5 days by MTT assay; type: functional, cell-based; conditions: MCF7, 120 h
MCF7 [3] = experiment: Induction of ER degradation in human MCF7 cells at 10 uM incubated for 24 hrs by Western blot analysis; type: cell-based
MCF7 [4] = experiment: Induction of cell cycle arrest in human MCF7 cells assessed as accumulation at G0/G1 phase at 10 uM incubated for 24 hrs by flow cytometry (Rvb= 46.53 +/- 0.44%); type: functional
MCF7 [5] = experiment: Antitumor activity against human MCF7 cells xenografted in nude mouse assessed as tumor growth inhibition at 10 mg/kg,po for 30 days; type: functional, organism-based; conditions: time 30.0 day
[6] = Plasma concentration in ICR mouse at 100 mg/kg, po and measured after 0.5 hrs by LC-MS analysis; type: ADME, organism-based

| Compound | inhibition at 20 µM (Ishikawa) [%] | IC50 (MCF7 [2]) [nM] | Activity (MCF7 [3]) | inhibition (Ishikawa) | also measured |
| --- | --- | --- | --- | --- | --- |
| CCNCCc1ccc(CN(CC)c2cc(OC)ccc2[C@@H]2CCc3cc(O)ccc3C2)cc1 [ELACESTRANT] |  |  |  |  | IC50 (MCF7 [1]): 4.2 µM |
| COc1ccc(C(=O)c2sc3cc(F)ccc3c2Oc2ccc(/C=C/C(=O)O)cc2)cc1 | 53 | 340 | Active |  |  |
| O=C(O)/C=C/c1ccc(Oc2c(C(=O)c3cccc4sccc34)sc3cc(F)ccc23)cc1 | 12 | 4280 | Active |  |  |
| Cc1cc(/C=C/C(=O)O)ccc1Oc1c(C(=O)c2ccccc2)sc2cc(F)ccc12 | 6 | 3790 | Active |  |  |
| Cc1cc(Cl)cc(C)c1C(=O)c1sc2cc(F)ccc2c1Oc1ccc(/C=C/C(=O)O)cc1 | 6 | 560 | Active |  |  |
| O=C(O)/C=C/c1ccc(-c2ccc(Oc3c(C(=O)c4ccccc4)sc4cc(F)ccc34)cc2)cc1 | 8 | 9910 | Active |  |  |
| Cc1cc(C)cc(C(=O)c2sc3cc(F)ccc3c2Oc2ccc(/C=C/C(=O)O)cc2)c1 |  | 2590 | Active | inactive |  |
| C[C@]12CC[C@@H]3c4ccc(O)cc4C[C@@H](CCCCCCCCC[S+]([O-])CCCC(F)(F)C(F)(F)F)[C@H]3[C@@H]1CC[C@@H]2O (stereo partly specified) [FULVESTRANT] |  | 0.1 |  | inactive | Activity (MCF7 [4]): 62.28%; Activity (MCF7 [5]): Active |
| Cc1cc(F)cc(C)c1C(=O)c1sc2cc(O)ccc2c1Oc1ccc(/C=C/C(=O)O)cc1 [RINTODESTRANT] |  |  |  |  | concentration at 0.5 h [6]: 4500 ng/mL |
| O=C(O)/C=C/c1ccc(Oc2c(C(=O)c3ccccc3)sc3cc(F)ccc23)cc1F |  | 1530 | Active | inactive |  |
| Cc1cccc(C)c1C(=O)c1sc2cc(F)ccc2c1Oc1ccc(/C=C/C(=O)O)cc1 |  | 280 | Active | inactive |  |
| O=C(O)/C=C/c1ccc(Oc2c(C(=O)c3ccc4ccccc4c3)sc3cc(F)ccc23)cc1 | 25 | 4740 | Active |  |  |
| O=C(O)/C=C/c1ccc(Oc2c(C(=O)c3ccc4occc4c3)sc3cc(F)ccc23)cc1 | 12 | 1880 | Active |  |  |

Reference: ChEMBL document CHEMBL5360561, “Design, synthesis and biological evaluation of fluorinated selective estrogen receptor degraders (FSERDs) --- A promising strategy for advanced ER positive breast cancer” (Eur J Med Chem, 2023)
